Assays:
L. casei DN114001 = assay: Capacity of using tagatose: live cell count after culture in minimal medium with added sugar; assay type: cell-based, Lactobacillus casei
Procedure: (§1) Pure culture solutions (1% culture solution in a stationary-phase in which a cell count of each of the strains is about 10^8 to 10^9 cfu/ml) of a total of 385 lactic acid bacteria strains were inoculated in selective media, respectively, and cultured in an incubator at 37° C. for 18 hours, followed by sub-culturing three times. Then, experiments proceeded at a state in which viability of the strain was optimal.
(§2) In order to evaluate the capacity of using tagatose of each of the lactic acid bacteria, a minimal medium composed of 5 g of peptone, 2.5 g of sodium acetate trihydrate, 0.5 ml of magnesium sulfate heptahydrate, 0.5 ml of manganese sulfate tetrahydrate, 5 ml of Tween 80, 1 g of diammonium citrate, 1 g of dipotassium phosphate, and 480 ml of distilled water was used.
(§3) After the medium was sterilized at 121° C. for 15 minutes and divided into three samples, 20 ml of 50% tagatose solution, 20 ml of 50% glucose solution, and 20 ml of 50% fructooligosaccharide solution (FOS) were added to each of the three samples, thereby preparing liquid media.
(§4) 1% of each of the lactic acid bacteria strains cultured as described above was inoculated in the prepared medium and cultured in an incubator at 37° C. for 24 hours. Thereafter, absorbance of each of the cultured strains was measured using an ELISA reader, and a cell count was measured through plate culture using a dilution solution, thereby evaluating the capacity of using tagatose.

L. casei Shirota = assay: as above; assay type: cell-based, Lactobacillus casei
Procedure: as §1, §2, §3, §4

L. casei-01® = assay: as above; assay type: cell-based, Lactobacillus casei
Procedure: as §1, §2, §3, §4

L. casei = assay: as above; assay type: cell-based, Lactobacillus casei; conditions: for Log10 Value of Live Cell Count: 24h, 37° C., minimal medium with the named sugar; for Tagatose/Glucose: ratio of 24h log10 live cell counts
Procedure: as §1, §2, §3, §4

L. rhamnosus GG = assay: as above; assay type: cell-based, Lactobacillus rhamnosus; conditions: for Log10 Value of Live Cell Count: 24h, 37° C., minimal medium with the named sugar; for Tagatose/Glucose: ratio of 24h log10 live cell counts
Procedure: as §1, §2, §3, §4

L. rhamnosus = assay: as above; assay type: cell-based, Lactobacillus rhamnosus; conditions: for Log10 Value of Live Cell Count: 24h, 37° C., minimal medium with the named sugar; for Tagatose/Glucose: ratio of 24h log10 live cell counts
Procedure: as §1, §2, §3, §4

P. pentosaceus = assay: as above; assay type: cell-based, Pediococcus pentosaceus; conditions: for Log10 Value of Live Cell Count: 24h, 37° C., minimal medium with the named sugar; for Tagatose/Glucose: ratio of 24h log10 live cell counts
Procedure: as §1, §2, §3, §4

L. farciminis = assay: as above; assay type: cell-based, Lactobacillus farciminis; conditions: strain 18 (L. farciminis)
Procedure: as §1
(§5) In order to evaluate the capacity of using tagatose of each of the lactic acid bacteria, a minimal medium composed of 5 g of peptone, 2.5 g of sodium acetate trihydrate, 0.5 ml of magnesium sulfate heptahydrate, 0.5 ml of manganese sulfate tetrahydrate, 5 ml of Tween 80, 1 g of diammonium citrate, 1 g of dipotassium phosphate, and 480 ml of distilled water was used. […]
as §4

L. acidophilus = assay: as above; assay type: cell-based, Lactobacillus acidophilus; conditions: strain 19 (L. acidophilus)
Procedure: as §1, §5, §4

[1] = tested on: lactic acid bacteria strains efficiently using tagatose; assay: Growth curves of lactic acid bacteria on other prebiotics (Example 3); assay type: cell-based; conditions: 9 strains, 37° C., live cell count at 0, 5, 10, 24 and 48 hours
Procedure: Capacity of using other prebiotics except for tagatose was evaluated, compared and analyzed using 9 strains having excellent capacity of using tagatose among the 19 strains identified in Example 2.
For the present evaluation, at the time of preparing the medium used in Example 1, as a positive control group, glucose was used except for tagatose, and as negative control groups, fructooligosaccharide, lactitol, lactulose, and xylitol were used.
Each of the Lactobacillus casei (FIG. 1), Lactobacillus casei Shirota (FIG. 2), Lactobacillus casei DN114001 (FIG. 3), Lactobacillus casei-01® (FIG. 4), Lactobacillus rhamnosus (FIG. 5), Lactobacillus rhamnosus GG (FIG. 6), Pediococcus pentosaceus (FIG. 7), Lactobacillus farciminis (FIG. 8), and Lactobacillus acidophilus (FIG. 9) that were identified in Example 2 was inoculated in each of the media and cultured at 37° C. for 0, 5, 10, 24, and 48 hours. Then, a live cell count thereof was measured, such that a growth curve of each of the strains was obtained.

[2] = 24h, 37° C., minimal medium with the named sugar
[3] = ratio of 24h log10 live cell counts

**Q.** For O=C(CO)[C@@H](O)[C@@H](O)[C@H](O)CO [Tagatose, tagatose], which “capacity of using tagatose” value (L. casei DN114001; L. casei DN114001, as compared to the other strains of Table 1) is on record?
**A.** Its value is “significantly excellent capacity of using tagatose”.

**Q.** What about the “Log10 Value of Live Cell Count” value (L. casei DN114001; strain 8 (L. casei DN114001), 24h, 37° C., minimal medium with the named sugar) of the same molecule?
**A.** Its value is 8.953.

**Q.** And the Tagatose/Glucose (L. casei DN114001; strain 8 (L. casei DN114001), ratio of 24h log10 live cell counts)?
**A.** The Tagatose/Glucose was 101.7%.

**Q.** And the “capacity of using tagatose” value (L. casei Shirota; L. casei Shirota, as compared to the other strains of Table 1)?
**A.** Its value is “significantly excellent capacity of using tagatose”.

**Q.** And the “Log10 Value of Live Cell Count” value (L. casei Shirota; strain 7 (L. casei Shirota), 24h, 37° C., minimal medium with the named sugar)?
**A.** Its value is 9.054.

**Q.** And the Tagatose/Glucose (L. casei Shirota; strain 7 (L. casei Shirota), ratio of 24h log10 live cell counts)?
**A.** The Tagatose/Glucose was 101.4%.

**Q.** What about the “capacity of using tagatose” value (L. casei-01®; L. casei-01, as compared to the other strains of Table 1) of the same molecule?
**A.** Its value is “significantly excellent capacity of using tagatose”.

**Q.** What about the “Log10 Value of Live Cell Count” value (L. casei-01®; strain 9 (L. casei-01®), 24h, 37° C., minimal medium with the named sugar) of the same molecule?
**A.** The value was 9.068.

**Q.** What about the Tagatose/Glucose (L. casei-01®; strain 9 (L. casei-01®), ratio of 24h log10 live cell counts) of the same molecule?
**A.** Its Tagatose/Glucose is 101.4%.

**Q.** And the “Log10 Value of Live Cell Count” value (L. casei; strain 1 (L. casei))?
**A.** Its value is 7.882.

**Q.** And the Tagatose/Glucose (L. casei; strain 1 (L. casei))?
**A.** Its Tagatose/Glucose is 100.3%.

**Q.** And the “Log10 Value of Live Cell Count” value (L. casei; strain 2 (L. casei))?
**A.** Its value is 8.137.

**Q.** What about the Tagatose/Glucose (L. casei; strain 2 (L. casei)) of the same molecule?
**A.** The Tagatose/Glucose was 100.1%.

**Q.** What about the “Log10 Value of Live Cell Count” value (L. casei; strain 3 (L. casei)) of the same molecule?
**A.** Its value is 8.240.

**Q.** What about the Tagatose/Glucose (L. casei; strain 3 (L. casei)) of the same molecule?
**A.** The Tagatose/Glucose was 99.6%.

**Q.** And the “Log10 Value of Live Cell Count” value (L. casei; strain 4 (L. casei))?
**A.** The value was 8.424.

**Q.** What about the Tagatose/Glucose (L. casei; strain 4 (L. casei)) of the same molecule?
**A.** The Tagatose/Glucose was 99.0%.

**Q.** What about the “Log10 Value of Live Cell Count” value (L. casei; strain 5 (L. casei)) of the same molecule?
**A.** The value was 8.449.

**Q.** And the Tagatose/Glucose (L. casei; strain 5 (L. casei))?
**A.** Its Tagatose/Glucose is 93.1%.

**Q.** What about the “Log10 Value of Live Cell Count” value (L. casei; strain 6 (L. casei)) of the same molecule?
**A.** The value was 8.767.

**Q.** And the Tagatose/Glucose (L. casei; strain 6 (L. casei))?
**A.** Its Tagatose/Glucose is 98.8%.

**Q.** What about the “capacity of using tagatose” value (L. rhamnosus GG; L. rhamnosus GG, as compared to the other strains of Table 1) of the same molecule?
**A.** The value was “significantly excellent capacity of using tagatose”.

**Q.** What about the “Log10 Value of Live Cell Count” value (L. rhamnosus GG; strain 14 (L. rhamnosus GG)) of the same molecule?
**A.** Its value is 8.548.

**Q.** What about the Tagatose/Glucose (L. rhamnosus GG; strain 14 (L. rhamnosus GG)) of the same molecule?
**A.** Its Tagatose/Glucose is 105.0%.

**Q.** And the “Log10 Value of Live Cell Count” value (L. rhamnosus GG; strain 15 (L. rhamnosus GG))?
**A.** The value was 8.822.

**Q.** What about the Tagatose/Glucose (L. rhamnosus GG; strain 15 (L. rhamnosus GG)) of the same molecule?
**A.** The Tagatose/Glucose was 103.5%.

**Q.** And the “Log10 Value of Live Cell Count” value (L. rhamnosus; strain 10 (L. rhamnosus))?
**A.** Its value is 7.939.

**Q.** And the Tagatose/Glucose (L. rhamnosus; strain 10 (L. rhamnosus))?
**A.** The Tagatose/Glucose was 98.5%.

**Q.** And the “Log10 Value of Live Cell Count” value (L. rhamnosus; strain 11 (L. rhamnosus))?
**A.** The value was 8.031.

**Q.** And the Tagatose/Glucose (L. rhamnosus; strain 11 (L. rhamnosus))?
**A.** Its Tagatose/Glucose is 99.2%.

**Q.** And the “Log10 Value of Live Cell Count” value (L. rhamnosus; strain 12 (L. rhamnosus))?
**A.** The value was 8.059.

**Q.** And the Tagatose/Glucose (L. rhamnosus; strain 12 (L. rhamnosus))?
**A.** Its Tagatose/Glucose is 98.5%.

**Q.** And the “Log10 Value of Live Cell Count” value (L. rhamnosus; strain 13 (L. rhamnosus))?
**A.** The value was 8.169.

**Q.** What about the Tagatose/Glucose (L. rhamnosus; strain 13 (L. rhamnosus)) of the same molecule?
**A.** Its Tagatose/Glucose is 99.5%.

**Q.** And the “Log10 Value of Live Cell Count” value (P. pentosaceus; strain 16 (P. pentosaceus))?
**A.** The value was 8.798.

**Q.** What about the Tagatose/Glucose (P. pentosaceus; strain 16 (P. pentosaceus)) of the same molecule?
**A.** The Tagatose/Glucose was 99.1%.

**Q.** And the “Log10 Value of Live Cell Count” value (P. pentosaceus; strain 17 (P. pentosaceus))?
**A.** Its value is 8.953.

**Q.** What about the Tagatose/Glucose (P. pentosaceus; strain 17 (P. pentosaceus)) of the same molecule?
**A.** The Tagatose/Glucose was 98.8%.

**Q.** And the “Log10 Value of Live Cell Count” value (L. farciminis; [2])?
**A.** The value was 8.601.

**Q.** And the Tagatose/Glucose (L. farciminis; [3])?
**A.** Its Tagatose/Glucose is 99.2%.

**Q.** What about the “Log10 Value of Live Cell Count” value (L. acidophilus; [2]) of the same molecule?
**A.** The value was 7.913.

**Q.** And the Tagatose/Glucose (L. acidophilus; [3])?
**A.** Its Tagatose/Glucose is 98.4%.

**Q.** Which “capacity of using the sugar (comparison of growth curves)” value [1] does the source give for OC[C@@H](O)[C@@H](O[C@@H]1O[C@H](CO)[C@H](O)[C@H](O)[C@H]1O)[C@H](O)[C@@H](O)CO [lactitol] here?
**A.** Its value is “low”.
